According to patent publication US10047087B2, “Substituted pyrazolo[1,5-A] pyridine as tropomyosin receptor kinase (TrK) inhibitors” (Dr. Reddy's Laboratories Ltd., priority 2011, dated 2018):

target: T1, TrkA kinase (Homo sapiens, UniProt P04629); assay: In vitro TrkA inhibitory activity using TR-FRET assay; assay type: biochemical; conditions: 5 ng TrkA, 500 μM ATP, both bounds given in nm, read-out: TrkA inhibitory activity in-vitro IC50
T1 construct: purchased Upstate, USA
Protocol: Determination of In Vitro TrkA Inhibitory Activity Using TR-FRET Assay
Compounds were screened in the TR-FRET assay with TrkA kinase. 5 ng of TrkA [Upstate, USA] kinase was used for assay. The compound was incubated with the kinase for 30 minutes at 20-35° C. After the incubation, substrate mix [40 nM Ultra light poly GT (Perkin Elmer, USA) and 500 μM ATP] was added. The above reaction was stopped by the addition of 40 mM EDTA after 30 minutes. The Eu-labelled antiphospho-tyrosine antibody [Perkin Elmer, USA] was added at 0.5 nM and the fluorescence emission at 615 nm/665 nm [excitation at 340 nm] was measured. The compounds were initially screened at 100 nM, 1 μM and 10 μM concentrations. The potent compounds with >25% inhibition at 1 μM of TrkA were taken for the full dose response studies. The final DMSO concentration in the assay was […]. For IC50 determination, ⅓^rd serial dilution was made from the 20 mM DMSO stock solution. 2 μl of these were transferred to the test wells containing 20 μl reaction mixture [Total reaction volume 22 μl]. The fluorescence was measured in Perkin Elmer Wallac 1420 Multilabel Counter Victor 3. The IC50 was determined by fitting the dose response data to a sigmoidal curve fitting equation using GraphPad Prism software version 5.

T1 sequence (P04629 33-796): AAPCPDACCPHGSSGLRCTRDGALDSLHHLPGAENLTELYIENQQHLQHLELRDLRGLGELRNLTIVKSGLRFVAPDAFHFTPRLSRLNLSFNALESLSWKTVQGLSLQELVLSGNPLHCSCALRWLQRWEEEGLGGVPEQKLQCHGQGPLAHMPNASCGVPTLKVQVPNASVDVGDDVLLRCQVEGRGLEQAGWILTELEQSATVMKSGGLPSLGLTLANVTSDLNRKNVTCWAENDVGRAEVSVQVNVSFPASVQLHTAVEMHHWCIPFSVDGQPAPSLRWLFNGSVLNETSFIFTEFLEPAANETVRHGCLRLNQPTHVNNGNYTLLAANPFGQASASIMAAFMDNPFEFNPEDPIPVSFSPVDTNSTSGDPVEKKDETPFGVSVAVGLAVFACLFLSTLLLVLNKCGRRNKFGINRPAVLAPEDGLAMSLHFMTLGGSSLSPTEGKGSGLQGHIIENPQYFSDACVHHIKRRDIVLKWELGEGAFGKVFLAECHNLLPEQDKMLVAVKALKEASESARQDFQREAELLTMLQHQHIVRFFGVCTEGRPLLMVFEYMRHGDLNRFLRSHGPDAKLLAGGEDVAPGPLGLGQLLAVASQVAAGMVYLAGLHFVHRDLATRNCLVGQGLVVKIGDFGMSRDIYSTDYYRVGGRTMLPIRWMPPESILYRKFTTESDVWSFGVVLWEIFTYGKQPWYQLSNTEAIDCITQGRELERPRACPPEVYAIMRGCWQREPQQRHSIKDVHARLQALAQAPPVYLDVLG

Row | IC50 [µM] | SMILES
1 | 0.1 to 0.5 | O=C(NS(=O)(=O)c1ccc(N2CCOCC2)cc1)c1cnn2ccc(N3CCC[C@@H]3c3cc(F)ccc3F)cc12 [Example 29, (R)-5-(2-(2,5-difluorophenyl)pyrrolidin-1-yl)-N-((4-morpholinophenyl)sulfonyl) pyrazolo[1,5-a]pyridine-3-carboxamide]
2 | 0.1 to 0.5 | O=C(NS(=O)(=O)c1cc(Cl)sc1Cl)c1cnn2ccc(N3CCC[C@@H]3c3cc(F)ccc3F)cc12 [Example 32, (R)-N-((2,5-dichlorothiophen-3-yl)sulfonyl)-5-(2-(2,5-difluorophenyl)pyrrolidin-1-yl) pyrazolo[1,5-a]pyridine-3-carboxamide]
3 | 0.1 to 0.5 | O=C(NS(=O)(=O)C1CCC1)c1cnn2ccc(N3CCC[C@@H]3c3cc(F)ccc3F)cc12 [Example 33, (R)-N-(cyclobutylsulfonyl)-5-(2-(2,5-difluorophenyl)pyrrolidin-1-yl)pyrazolo[1,5-a]pyridine-3-carboxamide]
4 | 0.1 to 0.5 | CCC1(S(=O)(=O)NC(=O)c2cnn3ccc(N4CCC[C@@H]4c4cc(F)ccc4F)cc23)CC1 [Example 36, (R)-5-(2-(2,5-difluorophenyl)pyrrolidin-1-yl)-N-((1-ethylcyclopropyl)sulfonyl) pyrazolo[1,5-a]pyridine-3-carboxamide]
5 | 0.1 to 0.5 | CC(C)(C)CS(=O)(=O)NC(=O)c1cnn2ccc(N3CCC[C@@H]3c3cc(F)ccc3F)cc12 [Example 37, (R)-5-(2-(2,5-difluorophenyl)pyrrolidin-1-yl)-N-(neopentylsulfonyl) pyrazolo[1,5-a]pyridine-3-carboxamide]

same assay, conditions: 5 ng TrkA, 500 μM ATP, lower bound in nm [sic], upper bound in μM, read-out: TrkA inhibitory activity in-vitro IC50

Row | IC50 [µM] | SMILES
6 | 0.5 to 1 | O=C(NS(=O)(=O)c1cccnc1)c1cnn2ccc(N3CCC[C@@H]3c3cc(F)ccc3F)cc12 [Example 30, (R)-5-(2-(2,5-difluorophenyl)pyrrolidin-1-yl)-N-(pyridin-3-ylsulfonyl)pyrazolo[1,5-a]pyridine-3-carboxamide]
7 | 0.5 to 1 | CC(C)(C)S(=O)(=O)NC(=O)c1cnn2ccc(N3C[C@H](O)C[C@@H]3c3cc(F)ccc3F)cc12 [Example 48, N-(tert-butylsulfonyl)-5-((2R,4R)-2-(2,5-difluorophenyl)-4-hydroxypyrrolidin-1-yl)pyrazolol[1,5-a]pyridine-3-carboxamide]

same assay, conditions: 5 ng TrkA, 500 μM ATP, read-out: TrkA inhibition in-vitro IC50

Row | SMILES | IC50 [µM]
8 | O=C(NS(=O)(=O)C1(Cc2ccc(F)cc2)CC1)c1cnn2ccc(N3CCC[C@@H]3c3cc(F)ccc3F)cc12 [Example 41, (R)-5-(2-(2,5-difluorophenyl)pyrrolidin-1-yl)-N-((1-(4-fluorobenzyl)cyclopropyl)sulfonyl) pyrazolo[1,5-a]pyridine-3-carboxamide] | ≤ 0.05
9 | CC(C)(C)S(=O)(=O)NC(=O)c1cnn2ccc(N3CCC[C@@H]3c3cncc(F)c3)cc12 [Example 44, (R)-N-(tert-butylsulfonyl)-5-(2-(5-fluoropyridin-3-yl)pyrrolidin-1-yl)pyrazolo[1,5-a] pyridine-3-carboxamide] | 0.05 to 0.1
10 | CC(C)(C)S(=O)(=O)NC(=O)c1cnn2ccc(N3CCC[C@@H]3c3cc(F)ccc3Cl)cc12 [Example 47, (R)-N-(tert-butylsulfonyl)-5-(2-(2-chloro-5-fluorophenyl)pyrrolidin-1-yl)pyrazolo[1,5-a]pyridine-3-carboxamide] | 0.05 to 0.1

Next, values leading:

Row | IC50 [µM] | SMILES
11 | ≤ 0.05 | O=C(NS(=O)(=O)c1ccc(Cl)s1)c1cnn2ccc(N3CCC[C@@H]3c3cc(F)ccc3F)cc12 [Example 31, (R)-N-((5-chlorothiophen-2-yl)sulfonyl)-5-(2-(2,5-difluorophenyl)pyrrolidin-1-yl)pyrazolo [1,5-a]pyridine-3-carboxamide]
12 | 0.05 to 0.1 | O=C(NS(=O)(=O)c1ccc2c(c1)OCCO2)c1cnn2ccc(N3CCC[C@@H]3c3cc(F)ccc3F)cc12 [Example 34, (R)-5-(2-(2,5-difluorophenyl)pyrrolidin-1-yl)-N-((2,3-dihydrobenzo[b][1,4]dioxin-6-yl)sulfonyl)pyrazolo [1,5-a]pyridine-3-carboxamide]
